One series addresses ATX enzyme (Homo sapiens (Human), UniProt Q13822). Description: ATX enzyme activity inhibition assay. The settings on record: 16:0-LPC substrate, Amplex UltraRed fluorescence. The format is biochemical. How it is done:
The tested compounds were dissolved with dimethyl sulfoxide (DMSO) to prepare 20 mM of stock solutions, the stock solutions were subjected to 4-fold gradient dilutions with DMSO, with the initial concentration of 20 µM and a total of 8 concentration gradients. 20 nL of diluted compound was transferred to a 384-well plate using Echo 550 and 5 µL of ATX enzyme solution formulated with 4 × Tris-HCl reaction buffer to the well, then the 384-well plate was centrifuged at 1000 rpm for 1 min and […] pre-incubated at room temperature for 15 min. Subsequently, 5 µL of 16:0-LPC foumulated with the above 4 × reaction buffer and 10 µL of assay solution containng 2 × Amplex UltraRed reagent, choline oxidase and horseradish peroxidase (HRP) foumulated with the same reaction buffer were added to each well, then the 384-well plate was centrifugated at 1000 rpm for 1 min. The fluorescence signals were read at an excitation wavelength of 530 nm and an emission wavelength of 590 nm by Synergy 2 microplate reader. The inhibition rate of the compound against enzyme reaction was calculated according to the fluorescence intensity ratio, and IC50 of the compound was analysed and calculated by GraphPad Prism 5 software.

In a further series the target is CYP3A4 (Homo sapiens (Human), UniProt P08684). Nature of the series: 3A4 subtype of CYP450 enzyme time-dependent inhibition assay (IC50 shift). The format is in vitro ADME. The settings on record: probe testosterone, 50 µM; 30 min pre-incubation with vs without NADPH, testosterone substrate, human liver microsomes. How it is done:
The probe substrate was testosterone at a concentration of 50 µM. The reaction was terminated after incubation for 10 min. The IC50 of the compound against enzyme was calculated by measuring the relative yield of metabolite, and the IC50 shift was calculated from the IC50 results of the groups pre-incubated with and without addition of NADPH.

Series [1] is described as follows: Rat pharmacokinetic study. Type of series: in vivo, SD rat. The settings on record: for half-life: read-out: t½ (converted). How it is done: SD rat pharmacokinetic study was performed on several compounds in Examples of the present disclosure through a single intravenous injection (IV, at a dose of 2 mg/kg) and a single oral administration (PO, at a dose of 10 mg/kg), and blood samples were taken before administration and 5 min, 15 min, 30 min, 1 h, 2 h, 4 h, 8 h, 12 h and 24 h after administration, respectively, to determine the plasma concentration of the compound for assay. The pharmacokinetic data of control compound and the compounds in Examples 17, 26, 28 and 29 of the present disclosure in rat plasma are shown in Tables 4-8.

Read-outs that look alike come from different tables or passages of the source.

Sequence of CYP3A4 (P08684 whole entry): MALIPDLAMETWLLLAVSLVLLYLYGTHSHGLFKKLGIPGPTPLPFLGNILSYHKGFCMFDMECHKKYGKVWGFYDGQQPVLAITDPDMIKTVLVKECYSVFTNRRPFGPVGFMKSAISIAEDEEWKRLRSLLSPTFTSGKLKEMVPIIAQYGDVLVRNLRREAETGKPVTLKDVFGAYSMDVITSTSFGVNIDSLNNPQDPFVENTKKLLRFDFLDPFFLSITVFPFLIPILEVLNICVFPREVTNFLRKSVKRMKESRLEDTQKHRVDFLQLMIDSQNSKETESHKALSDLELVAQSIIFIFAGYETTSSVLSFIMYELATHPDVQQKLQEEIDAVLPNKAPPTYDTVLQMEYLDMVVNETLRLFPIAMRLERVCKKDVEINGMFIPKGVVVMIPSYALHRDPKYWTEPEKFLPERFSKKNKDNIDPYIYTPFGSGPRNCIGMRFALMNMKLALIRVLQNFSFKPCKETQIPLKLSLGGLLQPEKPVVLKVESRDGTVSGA

For `CCc1nc2ccc(-c3cnc(CC(=O)N4CC(O)C4)cn3)cn2c1N(C)c1nc(-c2ccc(F)cc2)c(C#N)s1` [Example 4, 2-((2-ethyl-6-(5-(2-(3-hydroxyazetidin-1-yl)-2-oxoethyl)pyrazin-2-yl)imidazo[1,2-a]pyridin-3-yl)(methyl)amino)-4-(4-fluorophenyl)thiazole-5-carbonitrile], the IC50 at ATX enzyme was determined as 21 nM. For the same compound, the IC50 shift at 10 min on CYP3A4 came out at 1.04.
On to `CCc1nc2ccc(-c3cnc(N4CCCS4(=O)=O)cn3)cn2c1N(CC)c1nc(-c2ccc(F)cc2)c(C#N)s1` [Example 19, 2-((6-(5-(1,1-dioxidoisothiazolidin-2-yl)pyrazin-2-yl)-2-ethylimidazo[1,2-a]pyridin-3-yl)(ethyl)amino)-4-(4-fluorophenyl)thiazole-5-carbonitrile], for which, on ATX enzyme, the 50% inhibitory concentration (IC50) amounted to 17 nM.
For `CCc1nc2ccc(-c3cnc(N(C)S(C)(=O)=O)nc3)cn2c1N(CC)c1nc(-c2ccc(F)cc2)c(C#N)s1` [Example 20, N-(5-(3-((5-cyano-4-(4-fluorophenyl)thiazol-2-yl)(ethyl)amino)-2-ethylimidazo[1,2-a]pyridin-6-yl)pyrimidin-2-yl)-N-methylmethanesulfonamide], the IC50 on ATX enzyme came out at 45 nM.
For `CCN(c1nc(-c2ccc(F)cc2)c(C#N)s1)c1c2nc(-c3cnc(N4CCCCS4(=O)=O)nc3)ccc2nn1CC` [Example 21, 2-((5-(2-(1,1-dioxido-1,2-thiazinan-2-yl)pyrimidin-5-yl)-2-ethyl-2H-pyrazolo[4,3-b]pyridin-3-yl)(ethyl)amino)-4-(4-fluorophenyl)thiazole-5-carbonitrile], the half-maximal inhibitory concentration (IC50) on ATX enzyme turned out to be 11 nM.
Still for that read-out and setting: under `CCN(c1nc(-c2ccc(F)cc2)c(C#N)s1)c1c2nc(-c3cnc(N4CC(CO)C4)nc3)ccc2nn1CC` [Example 24, 2-(ethyl(2-ethyl-5-(2-(3-(hydroxymethyl)azetidin-1-yl)pyrimidin-5-yl)-2H-pyrazolo[4,3-b]pyridin-3-yl)amino)-4-(4-fluorophenyl)thiazole-5-carbonitrile] stands 11 nM; under `CCN(c1nc(-c2ccc(F)cc2)c(C#N)s1)c1c2nc(-c3cnc(N4CC(OC(C)=O)C4)nc3)ccc2nn1CC` [Example 25, 1-(5-(3-((5-cyano-4-(4-fluorophenyl)thiazol-2-yl)(ethyl)amino)-2-ethyl-2H-pyrazolo[4,3-b]pyridin-5-yl)pyrimidin-2-yl)azetidin-3-yl acetate], 12 nM.
As to `CCN(c1nc(-c2ccc(F)cc2)c(C#N)s1)c1c2nc(-c3cnc(N4CC[C@@H](O)C4)nc3)ccc2nn1CC` [Example 28, (R)-2-(ethyl(2-ethyl-5-(2-(3-hydroxypyrrolidin-1-yl)pyrimidin-5-yl)-2H-pyrazolo[4,3-b]pyridin-3-yl)amino)-4-(4-fluorophenyl)thiazole-5-carbonitrile], the half-inhibitory concentration (IC50) on ATX enzyme was determined as 3.8 nM. For the same compound, the Cl_F_pred in series [1] (IV 2 mg/kg) stood at 0.14 L/h/kg. The Cl_F_pred in series [1] (PO 10 mg/kg) is listed as 0.6 L/h/kg. The compound further gave a F in series [1] (PO 10 mg/kg vs IV 2 mg/kg) of 25.9%. Further, in series [1] (SD, plasma, IV 2 mg/kg), the AUC(0-inf) worked out at 14100 ng·h/mL, the AUC(0-t) came to 13900 ng·h/mL, the Cmax is 4380 ng/mL and the half-life is 246 min. Besides, in series [1] (SD, plasma, PO 10 mg/kg), the total exposure AUC(0-inf) worked out at 18600 ng·h/mL, the AUC(0-t) is 18000 ng·h/mL, the Cmax was found to be 1720 ng/mL and the Tmax was found to be 4 h. In series [1] (SD, plasma, PO 10 mg/kg), the half-life is 252 min. On CYP3A4, the IC50 shift at 10 min turned out to be 1.28.

Values taken from patent US20230295159A1, “ATX INHIBITOR, AND PREPARATION METHOD THEREFOR AND USE THEREOF” (SUZHOU ARK BIOPHARMACEUTICAL CO., LTD., priority 2020, published 2023).
